How the values were obtained:
C57BL/6 mouse [1] = assay: Fatty liver treating effect, high-fat feed mice (H&E liver staining); assay type: in vivo; conditions: 35% fat feed 78 days, 10 mg/kg/day oral
Experimental: Animal (8-week-old C57BL/6 mouse) experiment was carried out in order to test fatty liver treating effect of the compound according to the present invention. Feed containing 35% fat was used to induce fatty liver. While giving the high-fat feed for 78 days, Compound S185 was orally administered (10 mg/kg/day). At the end of the experiment, liver tissue was harvested and fixed in paraformaldehyde solution and then stained with hematoxylin and eosin.

hPPARδ = target: T1, hPPARδ (Homo sapiens, UniProt Q03181); assay: Transfection assay (luciferase reporter, full-length PPAR plasmid) in CV-1 cells, PPARδ; assay type: cell-based; conditions: 24 hours
T1 sequence (Q03181 1-441): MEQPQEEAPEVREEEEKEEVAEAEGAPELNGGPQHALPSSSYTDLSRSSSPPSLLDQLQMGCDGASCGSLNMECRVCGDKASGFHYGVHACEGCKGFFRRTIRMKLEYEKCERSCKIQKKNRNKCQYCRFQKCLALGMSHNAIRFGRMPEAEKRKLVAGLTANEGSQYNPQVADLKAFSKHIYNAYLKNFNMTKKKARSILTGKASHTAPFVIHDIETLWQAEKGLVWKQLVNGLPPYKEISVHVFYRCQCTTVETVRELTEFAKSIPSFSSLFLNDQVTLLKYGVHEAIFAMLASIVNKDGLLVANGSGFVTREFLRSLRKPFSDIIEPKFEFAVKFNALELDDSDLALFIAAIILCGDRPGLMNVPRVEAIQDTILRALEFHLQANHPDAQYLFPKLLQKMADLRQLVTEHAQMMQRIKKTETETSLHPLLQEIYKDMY
Experimental: (§1) PPARδ activation effect of the compound represented by Chemical Formula I according to the present invention was identified by transfection assay. Further, selectivity test for other PPAR subtypes PPARα and PPARγ, toxicity test by MTT assay, and in vivo activity test through animal experiment were carried out. CV-1 cells were used for transfection assay. The cells were cultured in a 5% CO2 incubator at 37° C., on a 96-well plate using DMEM medium containing 10% FBS, DBS (delipidated) and 1% penicillin/streptomycin. Experiment was performed in four stages of cell inoculation, transfection, treatment with the compound of the present invention, and confirmation of result. The CV-1 cells inoculated onto a 96-well plate at 5,000 cells/well, and transfected 24 hours later. Transfection assay was performed using full-length PPAR plasmid DNA, reporter DNA having luciferase activity and thus capable of identifying PPAR activity, and β-galactosidase DNA which gives information about transfection efficiency. […] After culturing for 24 hours in an incubator, the cells were lysed using lysis buffer, and luciferase and β-galactosidase activity was measured using a luminometer and a microplate reader. The measured luciferase data were corrected using the β-galactosidase data, and were plotted to calculate the EC50 value.

ApoE−/− mice = assay: Atherosclerosis inhibiting effect, ApoE−/− mice (Sudan IV arterial plaque staining); assay type: in vivo; conditions: ApoE−/− mouse, high-fat high-cholesterol feed, 2 mg/kg/day oral, 28 days
Experimental: (§2) In order to test atherosclerosis inhibiting effect of the compound according to the present invention, in vivo experiment was carried out using atherosclerosis animal model ApoE−/−, Ldlr−/−mice. While giving high-fat, high-cholesterol feed (20% fat, 1.25% cholesterol; AIN-93G diet), the compound of the present invention (Compound S185) was orally administered at 2 mg/kg/day. 28 days later, arterial plaque was stained using Sudan IV, and the atherosclerosis inhibiting effect was compared with the control group.

Ldlr−/− mice = assay: Atherosclerosis inhibiting effect, Ldlr−/− mice (Sudan IV arterial plaque staining); assay type: in vivo; conditions: Ldlr−/− mouse, high-fat high-cholesterol feed, 2 mg/kg/day oral, 28 days
Experimental: as §2

[2] = Diabetes improving effect, glucose tolerance test (GTT); assay type: in vivo, mouse; conditions: for Fasting glucose level as compared to the control group: 10 mg/kg/day oral for 57 days; for Diabetes improving effect: GTT, overall conclusion
Experimental: In order to test diabetes improving effect of the compound according to the present invention, glucose tolerance test (GTT) was carried out. To a mouse to which the test compound had been orally administered for 57 days, glucose (1.5 g/kg) was abdominally administered and change of blood glucose level was monitored.

C57BL/6 mouse [3] = assay: Muscle endurance and muscle function in adult exercising mice (treadmill); assay type: in vivo; conditions: 10-week-old C57BL/6 mouse, 10 mg/kg oral, treadmill exercise 30 days
Experimental: Further, improvement of muscle endurance and muscle function was confirmed when the compound according to the present invention was administered to an adult. 10-week-old C57BL/6 mouse was let to exercise while orally administering Compound S185 or S186 (10 mg/kg). The mouse was let to exercise on a treadmill for 30 days, once a day for 30 minutes. Exercise condition was 5 minutes at 2 m/min, 5 minutes at 5 m/min, 5 minutes at 8 m/min, followed by 5 minutes at 20 m/min. At the end of the test, muscle endurance strengthening and muscle function improving effect was tested using a treadmill.

hPPARα = target: T2, hPPARα (Homo sapiens, UniProt Q07869); assay: Transfection assay (luciferase reporter, full-length PPAR plasmid) in CV-1 cells, PPARα selectivity; assay type: cell-based; conditions: 24 hours
T2 sequence (Q07869 1-468): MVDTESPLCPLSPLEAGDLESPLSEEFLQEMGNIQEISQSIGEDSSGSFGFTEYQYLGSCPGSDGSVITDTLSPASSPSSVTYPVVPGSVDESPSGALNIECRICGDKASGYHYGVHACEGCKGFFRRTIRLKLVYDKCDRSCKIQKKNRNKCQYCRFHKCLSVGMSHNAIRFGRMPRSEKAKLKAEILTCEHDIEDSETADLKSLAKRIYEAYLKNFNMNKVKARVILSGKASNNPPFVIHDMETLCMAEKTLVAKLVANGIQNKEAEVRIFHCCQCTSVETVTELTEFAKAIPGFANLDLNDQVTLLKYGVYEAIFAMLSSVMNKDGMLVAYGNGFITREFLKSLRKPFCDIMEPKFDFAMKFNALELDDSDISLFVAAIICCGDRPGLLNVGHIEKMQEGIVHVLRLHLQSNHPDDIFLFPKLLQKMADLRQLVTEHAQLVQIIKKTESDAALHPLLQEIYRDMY
Experimental: as §1

hPPARγ = target: T3, hPPARγ (Homo sapiens, UniProt P37231); assay: Transfection assay (luciferase reporter, full-length PPAR plasmid) in CV-1 cells, PPARγ selectivity; assay type: cell-based; conditions: 24 hours
T3 sequence (P37231 1-505): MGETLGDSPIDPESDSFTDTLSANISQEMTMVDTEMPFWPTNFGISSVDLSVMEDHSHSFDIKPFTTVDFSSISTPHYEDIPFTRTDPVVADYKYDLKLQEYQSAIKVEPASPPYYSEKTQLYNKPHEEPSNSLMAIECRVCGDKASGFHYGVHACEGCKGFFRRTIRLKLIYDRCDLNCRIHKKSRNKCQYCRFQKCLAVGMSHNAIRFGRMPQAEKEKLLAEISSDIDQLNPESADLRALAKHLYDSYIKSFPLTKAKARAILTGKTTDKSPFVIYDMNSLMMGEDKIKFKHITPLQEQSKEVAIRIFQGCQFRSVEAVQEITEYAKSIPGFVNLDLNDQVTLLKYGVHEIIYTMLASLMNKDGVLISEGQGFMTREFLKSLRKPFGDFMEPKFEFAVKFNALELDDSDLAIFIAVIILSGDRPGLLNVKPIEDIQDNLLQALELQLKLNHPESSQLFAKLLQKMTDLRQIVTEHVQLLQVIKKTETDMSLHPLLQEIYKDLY
Experimental: as §1

C57BL/6 mouse [4] = assay: Memory improving effect, Morris water maze test in LPS brain disease model; assay type: in vivo
Experimental: Animal (8-week-old C57BL/6 mouse) experiment was carried out in order to test the effect of the compound according to the present invention of treating dementia and Parkinson's disease through improvement of memory. Before performing experiment, an animal model of brain disease was established by injecting LPS into the brain by stereotaxy. Test groups were divided depending on the administration of the test compound and exercise. Exercise condition was 5 minutes at 2 m/min, 5 minutes at 5 m/min, 5 minutes at 8 m/min, followed by 5 minutes at 20 m/min. Morris water maze test was performed at the end of the test. It was confirmed that the compound according to the present invention and exercise are effective in treating dementia and Parkinson's disease through improvement of memory.

[5] = Obesity inhibiting effect, high-fat feed mice; assay type: in vivo, mouse; conditions: C57BL/6 mice, 35% fat feed 60 days, 10 mg/kg/day oral
Experimental: In order to test in vivo effect of the compound according to the present invention, experiment was carried out using mouse. 8-week-old C57BL/6 (SLC Co.) mice were used and feed containing 35% fat was used to induce obesity. While giving the high-fat feed for 60days, vehicle, Compound S185 or Compound S186 was orally administered (10 mg/kg/day).

mouse = assay: Muscle endurance test (treadmill) after administration during pregnancy, lactation or both; assay type: in vivo; conditions: for Body weight or growth rate of the fetus, treated versus control group / Type I muscle fiber (ATPase staining and immunostaining): 10 mg/kg/day oral during pregnancy, lactation or both; for Increase compared to control, Distance / Increase compared to control, Time: treadmill, 10 mg/kg/day oral
Experimental: Animal experiment was carried out in order to test muscle endurance strengthening and muscle function improving effect of the compound according to the present invention. Since muscle formation occurs mostly in the developmental stage, Compound S185 or S186 (10 mg/kg/day) was orally administered to a mouse during pregnancy, lactation or both. No difference in body weight or growth rate of the fetus was observed between the control group and the treated group. When the muscle was observed after removing the skin, the muscle of the treated group was redder than the control group. […] In order to confirm the effect of the change in the muscle fiber on improvement of muscle endurance and muscle function, test was performed using a treadmill.

[6] = administered during Pregnancy + lactation

SMILES | Fatty liver treating effect (H&E stained liver tissue, FIG. 1) (C57BL/6 mouse [1]) | EC50 (hPPARδ) [nM] | Atherosclerosis inhibiting effect improved as compared to the control group (ApoE−/− mice) [%] | Atherosclerosis inhibiting effect improved (Ldlr−/− mice) [%] | Fasting glucose level as compared to the control group [2] | Diabetes improving effect [2] | Exercise time and distance as compared to the control group (C57BL/6 mouse [3]) | EC50 hPPARα (hPPARα) | EC50 hPPARγ (hPPARγ) | Water maze test result (C57BL/6 mouse [4]; Exercise (o)) [s] | Water maze test result (C57BL/6 mouse [4]; Exercise (x)) [s] | Body weight increase as compared to the vehicle group [5] [%] | Body weight or growth rate of the fetus, treated versus control group (mouse) | Type I muscle fiber (ATPase staining and immunostaining) (mouse) | Increase compared to control, Distance (mouse; administered during Lactation) [times] | Increase compared to control, Time (mouse; administered during Lactation) [times] | Increase compared to control, Distance (mouse; [6]) [times] | Increase compared to control, Time (mouse; [6]) [times] | Increase compared to control, Distance (mouse; administered during Pregnancy) [times] | Increase compared to control, Time (mouse; administered during Pregnancy) [times]
Cc1cc(SCc2[se]c(-c3ccc(C(F)(F)F)cc3)nc2C)ccc1OCC(=O)O [Compound S185] | effective in preventing fatty liver | 0.66 | 60 | 36 | lower fasting glucose level | effective in improving diabetes | improvement both in exercise time and distance | ia | ia | 14 | 20 | 39 | No difference | increased type I muscle fiber | 2.6 | 2.1 | 3.9 | 3.7 | 2.7 | 2.3
Cc1cc([Se]Cc2[se]c(-c3ccc(C(F)(F)F)cc3)nc2C)ccc1OCC(=O)O [Compound S186] |  | 4.27 |  |  | lower fasting glucose level | effective in improving diabetes | improvement both in exercise time and distance | ia | ia | 16 | 27 | 42 | No difference | increased type I muscle fiber | 2.0 | 1.8 | 3.3 | 3.1 | 2.1 | 2.1

From patent US20120316346A1, “SELENALZOLE DERIVATIVE HAVING LIGAND WHICH ACTIVATES PEROXISOME PROLIFERATOR ACTIVATED RECEPTOR (PPAR), PREPARING METHOD THEREOF AND USAGE OF THE CHEMICAL COMPOUNDS” (SNU R & DB FOUNDATION, priority 2010, published 2012)
